Source: patent US20170246144A1, “METHOD OF PREVENTING OR TREATING SPINOCEREBELLAR ATAXIA BY ADMINISTRATING SILIBININ” (National Taiwan Normal University, priority 2016, published 2017)

What was measured:
Assay type in all cases: cell-based, Human
[1] = system: SH-SY5Y cells; assay: Annexin V-FITC/PI flow cytometry, apoptosis induced by MSG; conditions: 10 μM, 100 mM MSG, 24 hours
Description: 1×10^6 SH-SY5Y cells were treated with 100 mM MSG and 15 μM SB or 10 μM MK801 (MK) for 24 hours. Cells were stained with Annexin-V/PI and the apoptosis was measured with a flow cytometry.
In order to detect the effects of silibinin in inhibiting the apoptosis induced by glutamate in SH-SY5Y cells. The cells were measured by flow cytometry using Annexin V-FITC/propidium iodide (PI) double-labeling method.
SH-SY5Y cells were seeded in dish and were treated with 100 mM MSG in combination of 15 μM silibinin or 10 μM MK801 for 24 hours. The cells were then trypsinized and collected by centrifugation at 2,000 rpm for […] followed by double-staining with Annexin V-FITC and PI. Stained cells were analyzed with a flow cytometry (FACS Sorter, Becton, Dickinson and Company). 10,000 cells were recorded in each experiment.

[2] = system: SH-SY5Y cells; assay: Chemiluminescence (luminol) analysis of ROS induced by MSG
Description: FIG. 6A: The ROS productions in 1×10^6 SH-SY5Y cells were measured by chemiluminescence (CL) analysis and luminol measurement, wherein the control group (Ctrl) was untreated SH-SY5Y cells or the cells were treated with 100 mM MSG, 100 mM MSG+15 μM SB or 100 mM MSG+10 μM MK801 (MK) for 24 hours.
It is known that the cyto-toxicity induced by glutamate is associated with mitochondria dysfunction and the increased production of ROS in neuron. In this embodiment, chemiluminescence analysis was performed to measure the level of ROS in order to understand whether silibinin can inhibit the accumulation of ROS associated with glutamatergic excitotoxicity. […] The emission spectrum was blue light which can be monitored by chemiluminescence detector.
SH-SY5Y cells were seeded in dish (1×10^6 cells/plate) for 24 hours, and then were pre-treated with 15 μM silibinin or 10 μM MK-801 for 1 hour followed by the treatment of 100 mM glutamate for 24 hours. The cells were then washed and suspended in 60 μL RIPA on ice bath followed by stirring and centrifugation at 13,000 rpm for […] at 4° C. The obtained protein sample (200 μL, 20 μg) was mixed with 0.5 mL of 0.2 mM luminol (Sigma). After 5 minutes, chemiluminescence analysis system (CLD-110, Tohoku Electronic Inc. Co. Japan) was performed to determine its chemiluminescence.

[3] = system: SH-SY5Y cells; assay: JC-1 flow cytometry of mitochondria membrane potential (MMP)
Description: FIGS. 7A and 7B show the effects of SB on mitochondria membrane potential (MMP) in SH-SY5Y cells treated with MSG measured by JC-1 staining with a flow cytometry, wherein the control group (Ctrl) was untreated SH-SY5Y cells or the cells were treated with 100 mM MSG, 100 mM MSG+15 μM SB, 100 mM MSG+10 μM MK801 (MK) or 5 μM CCCP (disruptor of electron transport chain) for 12 hours. […] The results were shown as mean±SEM, n=3, *p<0.05, comparing to the MSG treatment group.
In the present embodiment, flow cytometry analysis was used to investigate whether silibinin can prevent the reduction of mitochondria membrane potential induced by glutamate in SH-SY5Y cells.
SH-SY5Y cells were seeded in 6 centimeter dish (1×10^6 cells/plate) for 24 hours, and then were pre-treated with 15 μM silibinin or 10 μM MK-801 for 1 hour followed by the treatment of 100 mM MSG for 12 hours. 5 μM carbonyl cyanide m-chlorophenylhydrazone (CCCP) was added to the positive control group to induce the depolarization of mitochondria membrane potential.
The treated cells were washed, centrifuged and collected, followed by PBS wash and JC-1 dye staining for 30 minutes. The stained cells were re-suspended using phosphate buffer solution and analyzed by a flow cytometry to obtain a 2-dimensional scatter plot. 10,000 cells were recorded for each experiment.

Row | SMILES | apoptosis (apoptotic cells) [1] [%] | extracellular ROS ([2]; 10 μM, 100 mM MSG, 24 hours) | inhibition at 10 µM ([2]; Homo sapiens, SH-SY5Y, 24 h, read-out: inhibition of intracellular ROS) [%] | MMP compared to Ctrl ([3]; 10 μM + 100 mM MSG) [%] | MMP retained ([3]; 5 μM CCCP, positive control, no MSG) [%]
1 | C[C@]12N[C@H](Cc3ccccc31)c1ccccc12 [MK801] | 9.73 | unchanged | 80 | 90±5 | 
2 | N#CC(C#N)=NNc1cccc(Cl)c1 [CCCP, carbonyl cyanide m-chlorophenylhydrazone] |  |  |  |  | 18±10
